Key:
[1] = target: human PAI-1 (Homo sapiens, UniProt P05121); assay: Assay for determining the IC50 of inhibition of PAI-1 (active PAI-1 bound to tPA-coated plate); assay type: biochemical; conditions: test compound 1-50 μM, pH 7.5
Procedure: Assay for determining the IC50 of inhibition of PAI-1. This assay is based upon the non-SDS dissociable interaction between tPA and active PAI-1. Assay plates are initially coated with human tPA (10 μg/ml). Test compounds are dissolved in DMSO at 10 mM, then diluted with physiologic buffer (pH 7.5) to a final concentration of 1-50 μM. The test compounds are incubated with human PAI-1 (50 ng/ml) for 15 minutes at room temperature. The tPA-coated plate is washed with a solution of 0.05% Tween 20 and 0.1% BSA, then the plate is blocked with a solution of 3% BSA. An aliquot of the test compound/PAI-1 solution is then added to the tPA-coated plate, incubated at room temperature for 1 hour, and washed. Active PAI-1 bound to the plate is assessed by adding an aliquot of a 1:1000 dilution of the 33B8 monoclonal antibody against human PAI-1, and incubating the plate at room temperature for 1 hour (Molecular Innovations, Royal Oak, Mich.). The plate is again washed, and a solution of goat anti-mouse IgG-alkaline phosphatase conjugate is added at a 1:50,000 dilution in goat serum. The plate is incubated 30 minutes at room temperature, washed, and a solution of alkaline phosphatase substrate is added. The plate is incubated 45 minutes at room temperature, and color development is determined at OD405 nm. The quantitation of active PAI-1 bound to tPA at varying concentrations of the test compound is used to determine the IC50. Results are analyzed using a logarithmic best-fit equation. The assay sensitivity is 5 ng/ml of human PAI-1 as determined from a standard curve ranging from 0-100 ng/ml.

[2] = target: T1, recombinant human plasminogen activator inhibitor-1 (PAI-1) (Homo sapiens, UniProt P05121); assay: Screening for PAI-1 inhibition (chromogenic tPA activity assay); assay type: biochemical
T1 construct: purchased Molecular Innovations, Royal Oak, Mich
T1 sequence (P05121 24-402): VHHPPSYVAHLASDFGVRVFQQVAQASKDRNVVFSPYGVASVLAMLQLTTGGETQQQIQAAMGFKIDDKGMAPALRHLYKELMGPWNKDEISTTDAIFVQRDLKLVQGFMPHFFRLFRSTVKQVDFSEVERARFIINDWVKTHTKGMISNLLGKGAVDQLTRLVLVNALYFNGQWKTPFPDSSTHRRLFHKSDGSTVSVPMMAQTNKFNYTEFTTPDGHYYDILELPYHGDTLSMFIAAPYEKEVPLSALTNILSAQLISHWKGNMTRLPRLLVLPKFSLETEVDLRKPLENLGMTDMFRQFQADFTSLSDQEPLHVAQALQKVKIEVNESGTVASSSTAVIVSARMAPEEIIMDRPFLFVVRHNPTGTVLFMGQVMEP
Procedure: Screening for PAI-1 inhibition. Test compounds are dissolved in DMSO at a final concentration of 10 mM, then diluted 100× in physiologic buffer. The inhibitory assay is initiated by the addition of the test compound (1-100 μM final concentration, maximum DMSO concentration of 0.2%) in a pH 6.6 buffer containing 140 nM recombinant human plasminogen activator inhibitor-1 (PAI-1; Molecular Innovations, Royal Oak, Mich.). Following a 1 hour incubation at room temperature, 70 nM of recombinant human tissue plasminogen activator (tPA) is added, and the combination of the test compound, PAI-1 and tPA is incubated for an additional 30 minutes. Following the second incubation, Spectrozyme-tPA (American Diagnostica, Greenwich, Conn.), a chromogenic substrate for tPA, is added and absorbance read at 405 nm at 0 and 60 minutes. Relative PAI-1 inhibition is equal to the residual tPA activity in the presence of the test compounds and PAI-1. Control treatments include the complete inhibition of tPA by PAI-1 at the molar ratio employed (2:1), and the absence of any effect of the test compound on tPA alone.

Sequence of human PAI-1 (P05121 24-402): as above

Row | Compound | melting point [°C] | IC50 [1] [µM] | inhibition at 25 µM [2] [%]
1 | Cc1c(C)n(Cc2ccccc2)c2ccc(-c3ccc(OCC(=O)O)cc3)cc12 [[4-(1-Benzyl-2,3-dimethyl-1H-indol-5-yl)-phenoxy]-acetic acid] | 203 to 206 | 51.5 | –
2 | O=C(O)COc1ccc(-c2ccc3c(c2)c2c(n3Cc3ccccc3)CCCC2)cc1 [[4-(9-Benzyl-6,7,8,9-tetrahydro-5H-carbazol-3-yl)-phenoxy]-acetic acid] | 176 to 180 | 35.6 | –
3 | Cn1c(-c2ccccc2)c(Cc2ccccc2)c2cc(-c3ccc(OCC(=O)O)cc3)ccc21 [[4-(3-Benzyl-1-methyl-2-phenyl-1H-indol-5-yl)-phenoxy]-acetic acid] | 179 to 181 | – | 48
4 | Cc1c(Cc2ccccc2)c2cc(-c3ccc(OCc4nnn[nH]4)cc3)ccc2n1Cc1ccccc1 [1,3-Dibenzyl-2-methyl-5-[4-(1H-tetrazol-5-ylmethoxy)-phenyl]-1H-indole] | 190 to 192 | 47.7 | –
5 | Cn1c(-c2ccccc2)c(Cc2ccccc2)c2cc(-c3ccc(OCc4nnn[nH]4)cc3)ccc21 [3-Benzyl-1-methyl-2-phenyl-5-[4-(1H-tetrazol-5-ylmethoxy)-phenyl]-1H-indole] | – | – | 56
6 | Cc1c(Cc2ccccc2)c2cc(-c3ccc(OCC(=O)O)cc3)ccc2n1C [[4-(3-Benzyl-1,2-dimethyl-1H-indol-5-yl)-phenoxy]-acetic acid] | 204 to 207 | 38 | –
7 | Cc1c(-c2ccccc2)n(Cc2ccccc2)c2cc(-c3ccc(OCc4nnn[nH]4)cc3)ccc12 [1-Benzyl-3-methyl-2-phenyl-6-[4-(1H-tetrazol-5-ylmethoxy)-phenyl]-1H-indole] | – | 36.9 | –
8 | CCCCCc1c(-c2ccccc2)n(C)c2ccc(-c3ccc(OCc4nnn[nH]4)cc3)cc12 [1-Methyl-3-pentyl-2-phenyl-5-[4-(1H-tetrazol-5-ylmethoxy)-phenyl]-1H-indole] | – | 36.4 | –
9 | Cc1c(Cc2ccccc2)c2cc(-c3ccc(OCc4nnn[nH]4)cc3)ccc2n1C [3-Benzyl-1,2-dimethyl-5-[4-(1H-tetrazol-5-ylmethoxy)-phenyl]-1H-indole] | – | 43.9 | –
10 | Cc1c(-c2ccccc2)n(Cc2ccccc2)c2cc(-c3ccc(OCC(=O)O)cc3)ccc12 [[4-(1-Benzyl-3-methyl-2-phenyl-1H-indol-6-yl)-phenoxy]-acetic acid] | 202 to 205 | – | 27
11 | CCCCCc1c(-c2ccccc2)n(C)c2ccc(-c3ccc(OCC(=O)O)cc3)cc12 [[4-(1-Methyl-3-pentyl-2-phenyl-1H-indol-5-yl)-phenoxy]-acetic acid] | 146 to 148 | – | 68
12 | c1ccc(Cc2c(-c3ccccc3)n(Cc3ccccc3)c3ccc(-c4ccc(OCc5nnn[nH]5)cc4)cc23)cc1 [1,3-Dibenzyl-2-phenyl-5-[4-(1H-tetrazol-5-ylmethoxy)-phenyl]-1H-indole] | – | – | 51

More lines, in order of falling IC50 [1], values ahead:

Row | melting point [°C] | IC50 [1] [µM] | inhibition at 25 µM [2] [%] | Compound
13 | 177 to 180 | 33.9 | – | Cc1c(-c2ccccc2)n(C)c2cccc(-c3ccc(OCC(=O)O)cc3)c12 [[4-(1,3-Dimethyl-2-phenyl-1H-indol-4-yl)-phenoxy]-acetic acid]
14 | – | 32.8 | – | Cc1c(-c2ccccc2)n(C)c2cccc(-c3ccc(OCc4nnn[nH]4)cc3)c12 [1,3-Dimethyl-2-phenyl-4-[4-(1H-tetrazol-5-ylmethoxy)-phenyl]-1H-indole]
15 | – | 28.2 | – | Cc1c(C)n(Cc2ccccc2)c2ccc(-c3ccc(OCc4nnn[nH]4)cc3)cc12 [1-Benzyl-2,3-dimethyl-5-[4-(1H-tetrazol-5-ylmethoxy)-phenyl]-1H-indole]
16 | – | 27.5 | – | c1ccc(Cn2c3c(c4cc(-c5ccc(OCc6nnn[nH]6)cc5)ccc42)CCCC3)cc1 [9-Benzyl-6-[4-(1H-tetrazol-5-ylmethoxy)-phenyl]-2,3,4,9-tetrahydro-1H-carbazole]
17 | 174 to 177 | 25.7 | – | Cc1c(-c2ccccc2)n(Cc2ccccc2)c2cccc(-c3ccc(OCc4nnn[nH]4)cc3)c12 [1-Benzyl-3-methyl-2-phenyl-4-[4-(1H-tetrazol-5-ylmethoxy)-phenyl]-1H-indole]
18 | 180 to 183 | 25.3 | – | Cc1c(Cc2ccccc2)c2cc(-c3ccc(OCC(=O)O)cc3)ccc2n1Cc1ccccc1 [[4-(1,3-Dibenzyl-2-methyl-1H-indol-5-yl)-phenoxy]-acetic acid]
19 | 82 to 86 | 23.1 | – | Cc1c(-c2ccccc2)n(Cc2ccccc2)c2cccc(-c3ccc(OCC(=O)O)cc3)c12 [[4-(1-Benzyl-3-methyl-2-phenyl-1H-indol-4-yl)-phenoxy]-acetic acid]
20 | 173.5 to 175 | 18.1 | – | Cc1c(-c2ccccc2)n(Cc2ccccc2)c2ccc(-c3ccc(OCC(=O)O)cc3)cc12 [[4-(1-Benzyl-3-methyl-2-phenyl-1H-indol-5-yl)-phenoxy]-acetic acid]
21 | – | 16.5 | – | Cc1c(-c2ccccc2)n(C)c2ccc(-c3ccc(OCc4nnn[nH]4)cc3)cc12 [1,3-Dimethyl-2-phenyl-5-[4-(1H-tetrazol-5-ylmethoxy)-phenyl]-1H-indole]
22 | 165 to 168 | 16.3 | – | CCCCCc1c(-c2ccccc2)n(Cc2ccccc2)c2ccc(-c3ccc(OCc4nnn[nH]4)cc3)cc12 [1-Benzyl-3-pentyl-2-phenyl-5-[4-(1H-tetrazol-5-ylmethoxy)-phenyl]-1H-indole]
23 | 141 to 143 | 15.4 | – | CCCCCc1c(-c2ccccc2)n(Cc2ccccc2)c2ccc(-c3ccc(OCC(=O)O)cc3)cc12 [[4-(1-Benzyl-3-pentyl-2-phenyl-1H-indol-5-yl)-phenoxy]-acetic acid]
24 | 153 to 155 | 12.1 | – | O=C(O)COc1ccc(-c2ccc3c(c2)c(Cc2ccccc2)c(-c2ccccc2)n3Cc2ccccc2)cc1 [[4-(1,3-Dibenzyl-2-phenyl-1H-indol-5-yl)-phenoxy]-acetic acid]
25 | – | 10.1 | – | Cc1c(-c2ccccc2)n(Cc2ccccc2)c2ccc(-c3ccc(OCc4nnn[nH]4)cc3)cc12 [1-Benzyl-3-methyl-2-phenyl-5-[4-(1H-tetrazol-5-ylmethoxy)-phenyl]-1H-indole]
26 | – | 6.1 | – | Cn1c2c(c3cc(-c4ccc(OCc5nnn[nH]5)cc4)ccc31)CCCC2 [9-Methyl-6-[4-(1H-tetrazol-5-ylmethoxy)-phenyl]-2,3,4,9-tetrahydro-1H-carbazole]
